{
  "source": "paper PMC10907494",
  "about": "“Applications of biaryl cyclization in the synthesis of cyclic enkephalin analogs with a highly restricted flexibility” (Amino Acids, 2024)",
  "target": "μ-opioid receptor (MOR) (Rattus norvegicus, UniProt P33535)",
  "sequence (P33535 whole entry)": "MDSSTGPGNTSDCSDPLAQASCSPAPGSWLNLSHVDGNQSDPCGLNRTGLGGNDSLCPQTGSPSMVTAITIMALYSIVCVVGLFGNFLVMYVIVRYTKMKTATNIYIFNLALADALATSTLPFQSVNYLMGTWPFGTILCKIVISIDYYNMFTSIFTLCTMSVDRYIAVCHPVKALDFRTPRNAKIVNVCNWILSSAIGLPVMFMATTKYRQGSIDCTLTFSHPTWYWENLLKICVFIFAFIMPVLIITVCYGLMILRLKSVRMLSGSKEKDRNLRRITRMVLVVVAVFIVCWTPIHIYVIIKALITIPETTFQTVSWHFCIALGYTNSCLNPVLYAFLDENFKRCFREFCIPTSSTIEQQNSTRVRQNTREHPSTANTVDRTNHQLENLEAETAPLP",
  "assay": "biochemical",
  "details": "for Radioligand SB at 30 μM of ligand (% of radioligand specific binding): mean and standard deviation; for % of radioligand specific binding at 3 μM, mean / % of radioligand specific binding at 10 μM, mean / % of radioligand specific binding at 30 μM, mean: initial screening; for MOR binding, times weaker than that of the linear counterpart: ratio of IC50 values, cyclic analog vs its linear counterpart",
  "description": "The binding affinity of cyclic and linear enkephalin analogs for μ-opioid receptor (MOR) was determined in competitive radioligand binding assays using membrane preparations from rat brain homogenates. The homogenates were obtained as described previously (Matalińska et al. [2020]). The membrane preparations were incubated at 25 °C for 60 min in the presence of 1.0 nM [^3H]DAMGO (obtained from PerkinElmer, USA) and the set of concentrations of the assayed compound proper for a particular compound and type of determination (screening or a full-displacement curve).\nFor screening purposes, we performed the experiments with the following concentrations of the compounds tested: 30 μM, 10 μM, and 3 μM. For full-displacement curves, 10 concentrations ranging either from 0.03 nM to 1 μM or from 300 nM to 30 μM were used. The range was chosen for the single compounds in a manner such that the expected IC50 would fall in the middle of the range. In the case of several experiments, only five concentrations were used (they are marked in the results table).\nNon-specific binding was measured in the presence of 10 μM naloxone. The assays were conducted with the assay buffer made of 50 mM Tris–HCl (pH 7.4), bacitracin (100 μg/ml), bestatin (30 μM), and captopril (10 μM), phenylmethylsulfonyl fluoride (PMSF, 30 μg/ml) in a total volume of 0.5 ml. After the incubation, a rapid filtration with a M-24 Cell Harvester (Brandel/USA) through GF/B Whatman glass fiber strips was conducted. The filters were soaked with 0.5% PEI just before the harvesting so as to minimize the extent of non-specific binding. Filter disks were cut from the sheet and placed separately in 24-well plates. The Optiphase Supermix scintillation solution (Perkin Elmer, USA) was added to each well. Radioactivity was measured in a scintillation counter MicroBeta LS, Trilux (PerkinElmer, USA). Displacement curves were drawn and the mean IC50 values were determined with SEMs (GraphPad Prism v. 5.0, San Diego, CA).",
  "key": {"[1]": {"details": "IC50 (estimation based on the screening results), estimated from screening at 30 μM, 10 μM and 3 μM, [3H]DAMGO, rat brain membranes"}, "[2]": {"details": "IC50 ± S.E.M., full-displacement curves, 1.0 nM [3H]DAMGO, rat brain membranes, 25 °C, 60 min, mean of 2 or 3 experiments unless footnoted"}, "[3]": {"details": "estimated IC50, estimated from initial screening at 30, 10 and 3 μM"}},
  "note": "Marks after values point to notes of the source that are not given here.",
  "data": [
    {"compound": "CC(C)C[C@H](NC(=O)[C@@H]1Cc2ccc(cc2)-c2ccc(cc2)C[C@H](N)C(=O)NCC(=O)NCC(=O)N1)C(N)=O", "note": "[c-(Phe-p-Phe-p)-L-NH2, H-(cyclo-p,p)-[Phe-Gly-Gly-Phe]-Leu-NH2]", "values": [
      {"measurement": "Radioligand SB at 30 μM of ligand (% of radioligand specific binding)", "setting": "[3H]DAMGO", "value": "73 ± 19", "unit": "%"},
      {"measurement": "IC50", "setting": "[1]", "value": "> 30000", "unit": "nM"},
      {"measurement": "% of radioligand specific binding at 3 μM, mean", "value": 110, "unit": "%"},
      {"measurement": "% of radioligand specific binding at 10 μM, mean", "value": 78, "unit": "%"},
      {"measurement": "% of radioligand specific binding at 30 μM, mean", "value": 73, "unit": "%"}
    ]},
    {"compound": "CC(C)C[C@H](NC(=O)[C@@H]1Cc2ccc(O)c(c2)-c2ccc(cc2)C[C@H](N)C(=O)NCC(=O)NCC(=O)N1)C(N)=O", "note": "[c-(Phe-p-Tyr-m)-L-NH2, H-(cyclo-p,m)-[Phe-Gly-Gly-Tyr]-Leu-NH2]", "values": [
      {"measurement": "Radioligand SB at 30 μM of ligand (% of radioligand specific binding)", "setting": "[3H]DAMGO", "value": "17 ± 3", "unit": "%"},
      {"measurement": "IC50", "setting": "[2]", "value": "6670 ± 262", "unit": "nM"},
      {"measurement": "% of radioligand specific binding at 3 μM, mean", "value": "62^c) %"},
      {"measurement": "% of radioligand specific binding at 10 μM, mean", "value": "34^c) %"},
      {"measurement": "% of radioligand specific binding at 30 μM, mean", "value": "17^c) %"}
    ]},
    {"compound": "CC(C)C[C@H](NC(=O)[C@@H]1Cc2cccc(c2)-c2cc(ccc2O)C[C@H](N)C(=O)NCC(=O)NCC(=O)N1)C(N)=O", "note": "[c-(Tyr-m-Phe-m)-L-NH2, H-(cyclo-m,m)-[Tyr-Gly-Gly-Phe]-Leu-NH2]", "values": [
      {"measurement": "Radioligand SB at 30 μM of ligand (% of radioligand specific binding)", "setting": "[3H]DAMGO", "value": "12 ± 3", "unit": "%"},
      {"measurement": "IC50", "setting": "[2]", "value": 3080, "unit": "nM"},
      {"measurement": "% of radioligand specific binding at 3 μM, mean", "value": 64, "unit": "%"},
      {"measurement": "% of radioligand specific binding at 10 μM, mean", "value": 28, "unit": "%"},
      {"measurement": "% of radioligand specific binding at 30 μM, mean", "value": 12, "unit": "%"},
      {"measurement": "MOR binding, times weaker than that of the linear counterpart", "value": "~500", "unit": "times"}
    ]},
    {"compound": "CC(C)C[C@H](NC(=O)[C@@H]1Cc2ccc(cc2)-c2cc(ccc2O)C[C@H](N)C(=O)NCC(=O)NCC(=O)N1)C(N)=O", "note": "[c-(Tyr-m-Phe-p)-L-NH2, H-(cyclo-m,p)-[Tyr-Gly-Gly-Phe]-Leu-NH2]", "values": [
      {"measurement": "Radioligand SB at 30 μM of ligand (% of radioligand specific binding)", "setting": "[3H]DAMGO", "value": "77 ± 4", "unit": "%"},
      {"measurement": "IC50", "setting": "[1]", "value": "> 30000", "unit": "nM"},
      {"measurement": "% of radioligand specific binding at 3 μM, mean", "value": 99, "unit": "%"},
      {"measurement": "% of radioligand specific binding at 10 μM, mean", "value": 78, "unit": "%"},
      {"measurement": "% of radioligand specific binding at 30 μM, mean", "value": 77, "unit": "%"}
    ]},
    {"compound": "CSCC[C@H](NC(=O)[C@@H]1Cc2ccc(cc2)-c2cc(ccc2O)C[C@H](N)C(=O)NCC(=O)NCC(=O)N1)C(N)=O", "note": "[c-(Tyr-m-Phe-p)-M-NH2, H-(cyclo-m,p)-[Tyr-Gly-Gly-Phe]-Met-NH2]", "values": [
      {"measurement": "Radioligand SB at 30 μM of ligand (% of radioligand specific binding)", "setting": "[3H]DAMGO", "value": "12 ± 4", "unit": "%"},
      {"measurement": "IC50", "setting": "[2]", "value": "1370 ± 266", "unit": "nM"},
      {"measurement": "IC50", "setting": "[3]", "value": "~1000", "unit": "nM"},
      {"measurement": "% of radioligand specific binding at 3 μM, mean", "value": 49, "unit": "%"},
      {"measurement": "% of radioligand specific binding at 10 μM, mean", "value": 34, "unit": "%"},
      {"measurement": "% of radioligand specific binding at 30 μM, mean", "value": 12, "unit": "%"},
      {"measurement": "MOR binding, times weaker than that of the linear counterpart", "value": "~500", "unit": "times"}
    ]},
    {"compound": "CC(C)C[C@H](NC(=O)[C@@H]1Cc2ccc(O)c(c2)-c2cc(ccc2O)C[C@H](N)C(=O)NCC(=O)NCC(=O)N1)C(N)=O", "note": "[c-(Tyr-m-Tyr-m)-L-NH2, H-(cyclo-m,m)-[Tyr-Gly-Gly-Tyr]-Leu-NH2]", "values": [
      {"measurement": "Radioligand SB at 30 μM of ligand (% of radioligand specific binding)", "setting": "[3H]DAMGO", "value": "117 ± 1", "unit": "%"},
      {"measurement": "IC50", "setting": "[1]", "value": "> 30000", "unit": "nM"},
      {"measurement": "% of radioligand specific binding at 3 μM, mean", "value": 87, "unit": "%"},
      {"measurement": "% of radioligand specific binding at 10 μM, mean", "value": 102, "unit": "%"},
      {"measurement": "% of radioligand specific binding at 30 μM, mean", "value": 117, "unit": "%"}
    ]},
    {"compound": "H-(cyclo-m,p)-[Tyr-Gly-Gly-Phe]-Leu-OH [c-(Tyr-m-Phe-p)-L-OH]", "values": [
      {"measurement": "Radioligand SB at 30 μM of ligand (% of radioligand specific binding)", "setting": "[3H]DAMGO", "value": "36 ± 6", "unit": "%"},
      {"measurement": "% of radioligand specific binding at 3 μM, mean", "value": 88, "unit": "%"},
      {"measurement": "% of radioligand specific binding at 10 μM, mean", "value": 60, "unit": "%"},
      {"measurement": "% of radioligand specific binding at 30 μM, mean", "value": 36, "unit": "%"}
    ]},
    {"compound": "H-FGGFL-NH2 [[Phe^1,Leu^5]enk-NH2, H-Phe-Gly-Gly-Phe-Leu-NH2, reference compound]", "values": [
      {"measurement": "Radioligand SB at 30 μM of ligand (% of radioligand specific binding)", "setting": "[3H]DAMGO", "value": "5 ± 1", "unit": "%"},
      {"measurement": "IC50", "setting": "[2]", "value": "596 ± 48.8", "unit": "nM"},
      {"measurement": "IC50", "setting": "[3]", "value": "< 3000", "unit": "nM"},
      {"measurement": "% of radioligand specific binding at 3 μM, mean", "value": "26^c) %"},
      {"measurement": "% of radioligand specific binding at 10 μM, mean", "value": "13^c) %"},
      {"measurement": "% of radioligand specific binding at 30 μM, mean", "value": "5^c) %"}
    ]},
    {"compound": "H-Phe-Gly-Gly-Tyr-Leu-NH2 (H-FGGYL-NH2) [[Phe^1,Tyr^4,Leu^5]enk-NH2, reference compound]", "values": [
      {"measurement": "Radioligand SB at 30 μM of ligand (% of radioligand specific binding)", "setting": "[3H]DAMGO", "value": "43 ± 11", "unit": "%"},
      {"measurement": "% of radioligand specific binding at 3 μM, mean", "value": 85, "unit": "%"},
      {"measurement": "% of radioligand specific binding at 10 μM, mean", "value": 61, "unit": "%"},
      {"measurement": "% of radioligand specific binding at 30 μM, mean", "value": 43, "unit": "%"}
    ]},
    {"compound": "H-YGGYL-NH2 [[Tyr^4,Leu^5]enk-NH2, H-Tyr-Gly-Gly-Tyr-Leu-NH2, reference compound]", "values": [
      {"measurement": "IC50", "setting": "[2]", "value": "222 ± 15.9", "unit": "nM"},
      {"measurement": "MOR binding reduced, times, compared to the parent [Leu^5]enk-NH2", "setting": "ratio of IC50 values vs [Leu^5]enk-NH2", "value": "about 40 times"}
    ]}
  ]
}
